US20050203163A1, “Farnesyl transferase inhibitors in combination with HMG CoA reductase inhibitors for the treatment of cancer” (Pfizer Inc, priority 1997, published 2005)

System: K-Ras 4B
Experiment: Prenylation of K-ras 4B in intact cells (immunoblot, densitometric scanning)
Format: cell-based
Details: 5 μM hydrolysed lovastatin alone (Compound 1 at 0); NIH-3T3 transfectant overexpressing mutant K-Ras 4B; 18 hours at 37° C.

## CC[C@H](C)C(=O)O[C@H]1C[C@@H](C)C=C2C=C[C@H](C)[C@H](CC[C@@H]3C[C@@H](O)CC(=O)O3)[C@H]21 [Lovastatin, lovastatin]
  % Inhibition OF K-Ras 4B Prenylation: 23%
